Source: patent US6555501B1, “4-trifluoromethyl-3-oxazolylpyridines, processes for their preparation, compositions comprising them and their use as pesticides” (Hoechst Schering AgrEvo GmbH, priority 1998, dated 2003)

Tests used:
Format in all cases: in vivo
[1] = test system: black bean aphids (Aphis fabae); assay: Black bean aphid dip test on broad bean (plants and aphids dipped in the preparation); settings: 300 ppm (content of active compound), Vicia faba plants and aphids dipped 5 seconds, after 3 and 6 days storage, read-out: mortality among the aphids
Description: Germinated broad bean seeds (Vicia faba) with radicles were transferred into brown glass bottles filled with tap water and subsequently populated with approximately 100 black bean aphids (Aphis fabae). Plants and aphids were then dipped for 5 seconds into an aqueous solution of the formulated preparation to be examined. After the solution had dripped off, plants and animals were kept in a climatized chamber (16 hours of light/day, 25° C., 40-60% relative atmospheric humidity). After 3 and 6 days storage, the effect of the preparation on the aphids was determined. At a concentration of 300 ppm (based on the content of active compound), the preparations of Example Nos. 1/37, 1/78, 1/136, 1/94, 1/174, 1/14, 1/125, 1/187, 1/17, 1/84, 1/52, 1/82, 1/70, 3/74, 1/54, 1/81, 1/42, 3/161, 1/186 effected a mortality of 90-100% among the aphids. (The active compounds are numbered with the Table/No. in the table).

[2] = test system: black bean aphids (Aphis fabae); assay: Root-systemic activity against black bean aphids on broad bean; settings: 30 ppm (content of active compound), 4 ml solution pipetted into the bottle with Vicia faba, after 3 and 6 days storage, read-out: mortality among the aphids by root-systemic action
Description: Germinated broad bean seeds (Vicia faba) with radicles were transferred into brown glass bottles filled with tap water. Four milliliters of an aqueous solution of the formulated preparation to be examined were pipetted into the brown glass bottle. The broad bean was subsequently heavily populated with approximately 100 black bean aphids (Aphis fabae). Plants and animals were then stored in a climatized chamber (16 hours of light/day, 25° C., 40-60% relative atmospheric humidity). After 3 and 6 days storage, the root-systemic activity of the preparation on the aphids was determined. At a concentration of 30 ppm (based on the content of active compound), the preparations of Example Nos. 1/53, 1/26, 1/37, 1/78, 1/136, 1/56, 1/94, 1/174, 1/14, 1/187, 1/84, 1/52, 1/82, 1/70, 1/32, 3/74, 1/54, 1/81, 1/42, 3/227, 3/161 effected a mortality of 90-100% among the aphids by root-systemic action.

[3] = test system: larvae (L3 stage) of the rice leafhopper species Nilaparvata lugens; assay: Rice leafhopper test on dipped rice plants; settings: 144 h, 300 ppm (content of active compound), rice leaves dipped 5 seconds, after 6 days storage, read-out: mortality among the leafhopper larvae
Description: The leaves of 12 rice plants having a stem length of 8 cm were dipped for 5 seconds into an aqueous solution of the formulated preparation to be examined. After the solution had dripped off, the rice plants treated in this manner were placed in a Petri dish and populated with approximately 20 larvae (L3 stage) of the rice leafhopper species Nilaparvata lugens. The Petri dish was closed and stored in a climatized chamber (16 hours of light/day, 25° C., 40-60% relative atmospheric humidity). After 6 days storage, the mortality among the leafhopper larvae was determined. At a concentration of 300 ppm (based on the content of active compound), the preparations of Example Nos. 1/53, 1/26, 1/164, 1/174, 1/82, 1/42 effected a mortality of 90-100%.

## CCCSCc1cnc(-c2cnccc2C(F)(F)F)o1 [1/136, 5-n-Propylthiomethyl-2-(4-trifluoromethyl-3-pyridyl)-oxazole]
[1]
  mortality at 300 ppm: 90 to 100%
[2]
  mortality at 30 ppm: 90 to 100%

## O=Cc1cnc(-c2cnccc2C(F)(F)F)o1 [1/164, 5-formyl-2-(4-trifluoromethyl-3-pyridyl)-oxazole]
[3]
  mortality at 300 ppm: 90 to 100%
